Reference: US8986731B2, “Pegylated liposomal formulations of hydrophobic photosensitizers for photodynamic therapy” (Biolitec Pharma Marketing Ltd, priority 2003, dated 2015)

Assay: Pharmacokinetic properties in HT29 tumour-bearing mice (HPLC of plasma and tissues; tolerability of injection)
Type: in vivo, athymic NMRI nu/nu mice
Conditions: lateral tail vein injection, 50 μL
Procedure: HT 29 human colorectal carcinoma cells are used. Six to eight weeks old adult female athymic NMRI nu/nu mice (Taconic M&B, Denmark) weighting 22-24 g were inoculated subcutaneously in the left hind thigh with 0.1 ml of 8×10^7 HT29 human colorectal carcinoma cells/ml in 5% glucose. Two to three weeks later, as the tumor reached a surface diameter of 7-8 mm, and a thickness of 2-3 mm in height, 50 μL of Temoporfin (0.2 mg/kg) diluted in ethanol or 50 μL pegylated liposomal formulation of mTHPC (0.04 mg/ml) were injected into lateral tail vein. Following the drug injection animals were held under normal animal house lighting conditions (average illumination of 200 Lux, maximum 600 Lux of fluorescent tube light, with no exposure to sunlight or daylight). No photo-reaction was observed during this period. […] The fluorescence wave length was set at 410 nm for excitation and 653 nm for emission. The tissue concentration of mTHPC was calculated from a calibration curve constructed by plotting the peak height values of mTHPC standard solutions versus their concentrations.

Oc1cccc(-c2c3nc(c(-c4cccc(O)c4)c4ccc([nH]4)c(-c4cccc(O)c4)c4nc(c(-c5cccc(O)c5)c5ccc2[nH]5)CC4)C=C3)c1 [Temoporfin]
Adverse effects during or immediately after injection: No adverse effects
